PubChem BioAssay (NCI)
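Briefly, cells in 96-well plates were exposed to five compound concentrations for 48 h, and endpoints were estimated by linear interpolation. GI50 is the concentration that inhibits growth by half. TGI: concentration producing complete growth inhibition.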

What was measured:
Experiment in all cases: NCI tumour cell line growth inhibition, 48 h
786-0 renal = tested on: 786-0 renal
A498 renal = tested on: A498 renal
A549 NSCLC = tested on: A549 NSCLC
ACHN renal = tested on: ACHN renal
BT-549 breast = tested on: BT-549 breast
CAKI-1 renal = tested on: CAKI-1 renal
CCRF-CEM leukemia = tested on: CCRF-CEM leukemia
COLO 205 colon = tested on: COLO 205 colon
DU-145 prostate = tested on: DU-145 prostate
HCC-2998 colon = tested on: HCC-2998 colon
HCT-116 colon = tested on: HCT-116 colon
HCT-15 colon = tested on: HCT-15 colon
HL-60(TB) leukemia = tested on: HL-60(TB) leukemia
HOP-62 NSCLC = tested on: HOP-62 NSCLC
HOP-92 NSCLC = tested on: HOP-92 NSCLC
HS 578T breast = tested on: HS 578T breast
HT29 colon = tested on: HT29 colon
IGROV1 ovarian = tested on: IGROV1 ovarian
K-562 leukemia = tested on: K-562 leukemia
KM12 colon = tested on: KM12 colon
LOX IMVI melanoma = tested on: LOX IMVI melanoma
M14 melanoma = tested on: M14 melanoma
MALME-3M melanoma = tested on: MALME-3M melanoma
MCF7 breast = tested on: MCF7 breast
MDA-MB-231 breast = tested on: MDA-MB-231 breast
MDA-MB-435 = tested on: MDA-MB-435
MOLT-4 leukemia = tested on: MOLT-4 leukemia
NCI-H226 lung = tested on: NCI-H226 lung
NCI-H23 lung = tested on: NCI-H23 lung
NCI-H460 lung = tested on: NCI-H460 lung
NCI-H522 lung = tested on: NCI-H522 lung
NCI/ADR-RES ovarian = tested on: NCI/ADR-RES ovarian
OVCAR-3 ovarian = tested on: OVCAR-3 ovarian
OVCAR-4 ovarian = tested on: OVCAR-4 ovarian
OVCAR-5 ovarian = tested on: OVCAR-5 ovarian
OVCAR-8 ovarian = tested on: OVCAR-8 ovarian
PC-3 prostate = tested on: PC-3 prostate
RPMI-8226 leukemia = tested on: RPMI-8226 leukemia
RXF 393 renal = tested on: RXF 393 renal
SF-268 CNS = tested on: SF-268 CNS
SF-295 CNS = tested on: SF-295 CNS
SF-539 CNS = tested on: SF-539 CNS
SK-MEL-2 melanoma = tested on: SK-MEL-2 melanoma
SK-MEL-28 melanoma = tested on: SK-MEL-28 melanoma
SK-MEL-5 melanoma = tested on: SK-MEL-5 melanoma
SK-OV-3 ovarian = tested on: SK-OV-3 ovarian
SN12C renal = tested on: SN12C renal
SNB-19 CNS = tested on: SNB-19 CNS
SNB-75 CNS = tested on: SNB-75 CNS
SR leukemia = tested on: SR leukemia
SW-620 colon = tested on: SW-620 colon
T-47D breast = tested on: T-47D breast
TK-10 renal = tested on: TK-10 renal
U251 CNS = tested on: U251 CNS
UACC-257 melanoma = tested on: UACC-257 melanoma
UACC-62 melanoma = tested on: UACC-62 melanoma
UO-31 renal = tested on: UO-31 renal

Cn1c(=O)c(-c2ccccc2Cl)cc2cnc(NC3CCOCC3)nc21
GI50 (786-0 renal): 13.1 µM
TGI (786-0 renal): > 25 µM
GI50 (A498 renal): 3.34 µM
TGI (A498 renal): 15.5 µM
GI50 (A549 NSCLC): 18.2 µM
TGI (A549 NSCLC): > 25 µM
GI50 (ACHN renal): 4.64 µM
TGI (ACHN renal): > 25 µM
GI50 (BT-549 breast): > 25 µM
TGI (BT-549 breast): > 25 µM
GI50 (CAKI-1 renal): 6.58 µM
TGI (CAKI-1 renal): > 25 µM
GI50 (CCRF-CEM leukemia): 14.8 µM
TGI (CCRF-CEM leukemia): > 25 µM
GI50 (COLO 205 colon): 9.61 µM
TGI (COLO 205 colon): > 25 µM
GI50 (DU-145 prostate): 12.3 µM
TGI (DU-145 prostate): > 25 µM
GI50 (HCC-2998 colon): > 21.8 µM
TGI (HCC-2998 colon): > 25 µM
GI50 (HCT-116 colon): 8.05 µM
TGI (HCT-116 colon): > 25 µM
GI50 (HCT-15 colon): 9.82 µM
TGI (HCT-15 colon): > 25 µM
GI50 (HL-60(TB) leukemia): 10.5 µM
TGI (HL-60(TB) leukemia): > 25 µM
GI50 (HOP-62 NSCLC): > 25 µM
TGI (HOP-62 NSCLC): > 25 µM
GI50 (HOP-92 NSCLC): 4.27 µM
TGI (HOP-92 NSCLC): 21.6 µM
GI50 (HS 578T breast): 9.12 µM
TGI (HS 578T breast): > 25 µM
GI50 (HT29 colon): 7.02 µM
TGI (HT29 colon): > 25 µM
GI50 (IGROV1 ovarian): 9.42 µM
TGI (IGROV1 ovarian): > 25 µM
GI50 (K-562 leukemia): 9.36 µM
TGI (K-562 leukemia): > 25 µM
GI50 (KM12 colon): 21.1 µM
TGI (KM12 colon): > 25 µM
GI50 (LOX IMVI melanoma): 5.49 µM
TGI (LOX IMVI melanoma): > 25 µM
GI50 (M14 melanoma): 5.66 µM
TGI (M14 melanoma): > 25 µM
GI50 (MALME-3M melanoma): 7.08 µM
TGI (MALME-3M melanoma): > 22.3 µM
GI50 (MCF7 breast): > 25 µM
TGI (MCF7 breast): > 25 µM
GI50 (MDA-MB-231 breast): 7.69 µM
TGI (MDA-MB-231 breast): > 25 µM
GI50 (MDA-MB-435): 7.22 µM
TGI (MDA-MB-435): > 25 µM
GI50 (MOLT-4 leukemia): 10.2 µM
TGI (MOLT-4 leukemia): > 25 µM
GI50 (NCI-H226 lung): 12.3 µM
TGI (NCI-H226 lung): > 25 µM
GI50 (NCI-H23 lung): 18.3 µM
TGI (NCI-H23 lung): > 25 µM
GI50 (NCI-H460 lung): 11.1 µM
TGI (NCI-H460 lung): > 25 µM
GI50 (NCI-H522 lung): 12.6 µM
TGI (NCI-H522 lung): > 25 µM
GI50 (NCI/ADR-RES ovarian): 12.9 µM
TGI (NCI/ADR-RES ovarian): > 25 µM
GI50 (OVCAR-3 ovarian): > 22.7 µM
TGI (OVCAR-3 ovarian): > 25 µM
GI50 (OVCAR-4 ovarian): 10.4 µM
TGI (OVCAR-4 ovarian): > 25 µM
GI50 (OVCAR-5 ovarian): 18.5 µM
TGI (OVCAR-5 ovarian): > 25 µM
GI50 (OVCAR-8 ovarian): 10.2 µM
TGI (OVCAR-8 ovarian): > 25 µM
GI50 (PC-3 prostate): 21.4 µM
TGI (PC-3 prostate): > 25 µM
GI50 (RPMI-8226 leukemia): > 15.7 µM
TGI (RPMI-8226 leukemia): > 25 µM
GI50 (RXF 393 renal): 5.19 µM
TGI (RXF 393 renal): > 23.9 µM
GI50 (SF-268 CNS): 14.6 µM
TGI (SF-268 CNS): > 25 µM
GI50 (SF-295 CNS): 12.1 µM
TGI (SF-295 CNS): > 25 µM
GI50 (SF-539 CNS): 11.1 µM
TGI (SF-539 CNS): > 25 µM
GI50 (SK-MEL-2 melanoma): 6.1 µM
TGI (SK-MEL-2 melanoma): 14.7 µM
GI50 (SK-MEL-28 melanoma): 10.7 µM
TGI (SK-MEL-28 melanoma): > 25 µM
GI50 (SK-MEL-5 melanoma): 11 µM
TGI (SK-MEL-5 melanoma): > 25 µM
GI50 (SK-OV-3 ovarian): 8.89 µM
TGI (SK-OV-3 ovarian): > 25 µM
GI50 (SN12C renal): 8.05 µM
TGI (SN12C renal): > 25 µM
GI50 (SNB-19 CNS): > 25 µM
TGI (SNB-19 CNS): > 25 µM
GI50 (SNB-75 CNS): 3.82 µM
TGI (SNB-75 CNS): > 25 µM
GI50 (SR leukemia): 8.3 µM
TGI (SR leukemia): > 25 µM
GI50 (SW-620 colon): 14.8 µM
TGI (SW-620 colon): > 25 µM
GI50 (T-47D breast): 18.1 µM
TGI (T-47D breast): > 25 µM
GI50 (TK-10 renal): 6.19 µM
TGI (TK-10 renal): > 22.9 µM
GI50 (U251 CNS): 15.1 µM
TGI (U251 CNS): > 25 µM
GI50 (UACC-257 melanoma): 14.8 µM
TGI (UACC-257 melanoma): > 25 µM
GI50 (UACC-62 melanoma): 6.37 µM
TGI (UACC-62 melanoma): > 25 µM
GI50 (UO-31 renal): 6.8 µM
TGI (UO-31 renal): > 22.4 µM
